Legend:
[1] = tested on: APP/PS1 transgenic mice; test: Cognitive tests in APP/PS1 transgenic mice; format: in vivo, mouse; conditions: 4-week repeated dosing test
[2] = tested on: APP/PS1 transgenic mice; test: Tonic GABA current, neuronal firing and DAO compensation in APP/PS1 mice; format: in vivo, mouse; conditions: 4-week repeated dosing test
[3] = similar drugs; ref ZELAPAR®, XADAGO®; cited from earlier work
[4] = tested on: primary cultured spinal cord astrocytes; test: BDNF expression in cultured astrocytes (qPCR, Western blot); format: cell-based, mouse

Row | SMILES | cognitive function [1] | neuronal firing ([2]; 2nd week) | neuronal firing ([2]; 4th week) | Tmax [3] [min] | mRNA expression level of BDNF ([4]; GABA 100 μM, 24 h) | proBDNF expression (Western blotting) ([4]; GABA-treated)
1 | C#CCN(C)[C@H](C)Cc1ccccc1 [selegiline, reference compound] | cognitive function decline | started to decrease | completely lost | 45 |  | 
2 | NCCCC(=O)O [GABA, γ-aminobutyric acid] |  |  |  |  | significantly downregulated | reduction

From paper PMC12423301, “Astrocytic monoamine oxidase B (MAOB)–gamma-aminobutyric acid (GABA) axis as a molecular brake on repair following spinal cord injury” (Signal Transduction and Targeted Therapy, 2025)
